{"source": "patent US20150105252A1", "about": "“SUBSTITUTED PYRAZOLES AS HERBICIDES” (E I DU PONT DE NEMOURS AND COMPANY, priority 2013, published 2015)", "key": {"barnyardgrass [1]": {"test_system": "barnyardgrass", "assay": "Test A preemergence", "type": "in vivo, Echinochloa crus-galli", "conditions": "0 to 100 scale", "procedure,_shortened": "(§1)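 Greenhouse test in loam soil/sand blend; compounds formulated in non-phytotoxic solvent with surfactant, applied as preemergence directed soil spray or postemergence to plants 2–10 cm tall at one- to two-leaf stage. Injury rated visually versus untreated controls after approximately 10 days on a 0 (no effect) to 100 (complete control) scale.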"}, "crabgrass, large [2]": {"test_system": "crabgrass, large", "assay": "Test A preemergence", "type": "in vivo, Digitaria sanguinalis", "conditions": "0 to 100 scale", "procedure,_shortened": "as §1"}, "foxtail, giant [3]": {"test_system": "foxtail, giant", "assay": "Test A preemergence", "type": "in vivo, Setaria faberii", "conditions": "0 to 100 scale", "procedure,_shortened": "as §1"}, "morningglory [4]": {"test_system": "morningglory", "assay": "Test A preemergence", "type": "in vivo, Ipomoea spp.", "conditions": "0 to 100 scale", "procedure,_shortened": "as §1"}, "pigweed [5]": {"test_system": "pigweed", "assay": "Test A preemergence", "type": "in vivo, Amaranthus retroflexus", "conditions": "0 to 100 scale", "procedure,_shortened": "as §1"}, "velvetleaf [6]": {"test_system": "velvetleaf", "assay": "Test A preemergence", "type": "in vivo, Abutilon theophrasti", "conditions": "0 to 100 scale", "procedure,_shortened": "as §1"}, "wheat [7]": {"test_system": "wheat", "assay": "Test A preemergence", "type": "in vivo, Triticum aestivum", "conditions": "preemergence", "procedure,_shortened": "as §1"}, "corn [8]": {"test_system": "corn", "assay": "Test A preemergence", "type": "in vivo, Zea mays", "conditions": "0 to 100 scale", "procedure,_shortened": "as §1"}, "barnyardgrass [9]": {"test_system": "barnyardgrass", "assay": "Test A postemergence", "type": "in vivo, Echinochloa crus-galli", "conditions": "Postemergence", "procedure,_shortened": "as §1"}, "crabgrass, large [10]": {"test_system": "crabgrass, large", "assay": "Test A postemergence", "type": "in vivo, Digitaria sanguinalis", "procedure,_shortened": "as §1"}, "foxtail, giant [11]": {"test_system": "foxtail, giant", "assay": "Test A postemergence", "type": "in vivo, Setaria faberii", "procedure,_shortened": "as §1"}, "morningglory [12]": {"test_system": "morningglory", "assay": "Test A postemergence", "type": "in vivo, Ipomoea spp.", "procedure,_shortened": "as §1"}, "pigweed [13]": {"test_system": "pigweed", "assay": "Test A postemergence", "type": "in vivo, Amaranthus retroflexus", "procedure,_shortened": "as §1"}, "velvetleaf [14]": {"test_system": "velvetleaf", "assay": "Test A postemergence", "type": "in vivo, Abutilon theophrasti", "procedure,_shortened": "as §1"}, "wheat [15]": {"test_system": "wheat", "assay": "Test A postemergence", "type": "in vivo, Triticum aestivum", "procedure,_shortened": "as §1"}, "corn [16]": {"test_system": "corn", "assay": "Test A postemergence", "type": "in vivo, Zea mays", "procedure,_shortened": "as §1"}, "rice": {"test_system": "rice", "assay": "Test C flooded paddy test", "type": "in vivo, Oryza sativa", "conditions": "Flood", "procedure,_shortened": "(§2)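 In-water treatment: compound dosed into 3 cm flood over soil, water level unchanged throughout. Controls run alongside; visual assessment at day 13–15.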"}, "sedge, umbrella": {"test_system": "sedge, umbrella", "assay": "Test C flooded paddy test", "type": "in vivo, Cyperus difformis", "conditions": "Flood", "procedure,_shortened": "as §2"}, "ducksalad": {"test_system": "ducksalad", "assay": "Test C flooded paddy test", "type": "in vivo, Heteranthera limosa", "conditions": "Flood", "procedure,_shortened": "as §2"}, "barnyardgrass [17]": {"test_system": "barnyardgrass", "assay": "Test C flooded paddy test", "type": "in vivo, Echinochloa crus-galli", "conditions": "Flood", "procedure,_shortened": "as §2"}, "[18]": {"conditions": "Preemergence, 500 g ai/ha, 0 no effect, 100 complete control"}, "[19]": {"conditions": "preemergence, 125 g ai/ha, visual injury, approx. 10 days"}, "[20]": {"conditions": "Postemergence, 500 g ai/ha, visual rating after approx. 10 days, 0 to 100 scale (0 no effect, 100 complete control)"}, "[21]": {"conditions": "postemergence, 125 g ai/ha, about 10 days, visual rating on 0 to 100 scale (0 no effect, 100 complete control)"}, "[22]": {"conditions": "62 g ai/ha, scale 0 to 100 (0 no effect, 100 complete control)"}}}
{"smiles": "CCc1cc(C(=O)NOC(C)(C)CC)nn1Cc1cccc(OC(F)(F)F)c1", "note": "[Compound 71]", "values": [{"measurement": "Barnyardgrass plant response rating", "setting": "barnyardgrass [1]; [18]", "result": 80}, {"measurement": "Barnyardgrass plant response rating", "setting": "barnyardgrass [1]; [19]", "result": 60}, {"measurement": "Crabgrass, Large plant response rating", "setting": "crabgrass, large [2]; [18]", "result": 100}, {"measurement": "Crabgrass, Large plant response rating", "setting": "crabgrass, large [2]; [19]", "result": 90}, {"measurement": "Foxtail, Giant plant response rating", "setting": "foxtail, giant [3]; [18]", "result": 100}, {"measurement": "Foxtail, Giant plant response rating", "setting": "foxtail, giant [3]; [19]", "result": 80}, {"measurement": "Morningglory plant response rating", "setting": "morningglory [4]; [18]", "result": 50}, {"measurement": "Morningglory plant response rating", "setting": "morningglory [4]; [19]", "result": 20}, {"measurement": "Pigweed plant response rating", "setting": "pigweed [5]; [18]", "result": 100}, {"measurement": "Pigweed plant response rating", "setting": "pigweed [5]; [19]", "result": 80}, {"measurement": "Velvetleaf plant response rating", "setting": "velvetleaf [6]; [18]", "result": 40}, {"measurement": "Velvetleaf plant response rating", "setting": "velvetleaf [6]; [19]", "result": 30}, {"measurement": "Wheat plant response rating", "setting": "wheat [7]; 125 g ai/ha, visual injury, 0 to 100 scale, approx. 10 days", "result": 0}, {"measurement": "Wheat plant response rating", "setting": "wheat [7]; 500 g ai/ha, visual injury after approx. 10 days, 0 to 100 scale (0 no effect, 100 complete control)", "result": 70}, {"measurement": "Corn plant response rating", "setting": "corn [8]; [18]", "result": 10}, {"measurement": "Corn plant response rating", "setting": "corn [8]; [19]", "result": 0}, {"measurement": "Barnyardgrass plant response rating", "setting": "barnyardgrass [9]; 125 g ai/ha, 0 to 100 scale, 0 no effect, 100 complete control", "result": 30}, {"measurement": "Barnyardgrass plant response rating", "setting": "barnyardgrass [9]; 500 g ai/ha, visual rating after approx. 10 days, 0 to 100 scale (0 no effect, 100 complete control)", "result": 70}, {"measurement": "Crabgrass, Large plant response rating", "setting": "crabgrass, large [10]; [20]", "result": 80}, {"measurement": "Crabgrass, Large plant response rating", "setting": "crabgrass, large [10]; [21]", "result": 40}, {"measurement": "Foxtail, Giant plant response rating", "setting": "foxtail, giant [11]; [20]", "result": 70}, {"measurement": "Foxtail, Giant plant response rating", "setting": "foxtail, giant [11]; [21]", "result": 40}, {"measurement": "Morningglory plant response rating", "setting": "morningglory [12]; [20]", "result": 40}, {"measurement": "Morningglory plant response rating", "setting": "morningglory [12]; [21]", "result": 40}, {"measurement": "Pigweed plant response rating", "setting": "pigweed [13]; [20]", "result": 80}, {"measurement": "Pigweed plant response rating", "setting": "pigweed [13]; [21]", "result": 40}, {"measurement": "Velvetleaf plant response rating", "setting": "velvetleaf [14]; [20]", "result": 100}, {"measurement": "Velvetleaf plant response rating", "setting": "velvetleaf [14]; [21]", "result": 50}, {"measurement": "Wheat plant response rating", "setting": "wheat [15]; [20]", "result": 50}, {"measurement": "Wheat plant response rating", "setting": "wheat [15]; [21]", "result": 30}, {"measurement": "Corn plant response rating", "setting": "corn [16]; [20]", "result": 50}, {"measurement": "Corn plant response rating", "setting": "corn [16]; [21]", "result": 30}, {"measurement": "Plant response rating, Rice", "setting": "rice; [22]", "result": 0}, {"measurement": "Plant response rating, Rice", "setting": "rice; 125 g ai/ha, scale 0 to 100", "result": 30}, {"measurement": "Plant response rating, Rice", "setting": "rice; 250 g ai/ha, scale 0 to 100", "result": 45}, {"measurement": "Plant response rating, Sedge, Umbrella", "setting": "sedge, umbrella; [22]", "result": 70}, {"measurement": "Plant response rating, Sedge, Umbrella", "setting": "sedge, umbrella; 125 g ai/ha, scale 0 to 100", "result": 75}, {"measurement": "Plant response rating, Sedge, Umbrella", "setting": "sedge, umbrella; 250 g ai/ha, scale 0 to 100", "result": 85}, {"measurement": "Plant response rating, Ducksalad", "setting": "ducksalad; [22]", "result": 0}, {"measurement": "Plant response rating, Ducksalad", "setting": "ducksalad; 125 g ai/ha, scale 0 to 100", "result": 0}, {"measurement": "Plant response rating, Ducksalad", "setting": "ducksalad; 250 g ai/ha, scale 0 to 100", "result": 0}, {"measurement": "Plant response rating, Barnyardgrass", "setting": "barnyardgrass [17]; [22]", "result": 0}, {"measurement": "Plant response rating, Barnyardgrass", "setting": "barnyardgrass [17]; 125 g ai/ha, scale 0 to 100", "result": 20}, {"measurement": "Plant response rating, Barnyardgrass", "setting": "barnyardgrass [17]; 250 g ai/ha, scale 0 to 100", "result": 40}]}
